Data published in patent US6362369B1, “Phthalic acid diamide derivatives fluorine-containing aniline compounds as starting material, agricultural and horticultural insecticides, and a method for application of the insecticides” (Nihon Nohyaku Co., Ltd., priority 1997, dated 2002).

Tests used:
[1] = test system: diamondback moth (Plutella xylostella); test: Insecticidal effect on diamondback moth (Test Example 1); format: in vivo; details: diamondback moth; judged by the criterion of Test Example 1
In short: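 Triplicate groups of 10 insects were scored: six days after immersion of oviposited Chinese cabbage seedlings and holding at 25 °C post air-drying, hatched larvae were counted. Mortality derived from these counts and insecticidal effect judged by a set criterion.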

[2] = test system: rice leafroller (Cnaphalocrocis medinalis); test: Insecticidal effect on rice leafroller (Test Example 3); format: in vivo; details: 500 ppm, rice lamina dip, third-instar larvae of rice leafroller, 4 days after inoculation, 25° C., humidity 70%
In short: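 Insecticidal effect is judged by a predefined criterion from dead/alive counts four days after infesting air-dried lamina with third-instar larvae, kept on moistened filter paper at 25° C, 70% humidity.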

| Structure (SMILES) | Insecticidal effect (Test Example 1), judged from mortality [1] | Insecticidal effect (Test Example 3), judged from mortality [2] |
| --- | --- | --- |
| CCN(CC)C(=O)c1c(F)cccc1C(=O)Nc1ccc(C(F)(F)C(F)(F)F)cc1F [compound 1530] | A (100) | A (100) |
| CCN(CC)C(=O)c1c(F)cccc1C(=O)Nc1ccc(C(F)(F)F)cc1 [compound 1547] | A (100) | A (100) |
| CCN(CC)C(=O)c1c(F)cccc1C(=O)Nc1ccc(OC(F)(F)F)cc1 [compound 1548] | A (100) | A (100) |
| Cc1cc(C(F)(F)C(F)(F)F)ccc1N(C)C(=O)c1cccc(Cl)c1C(=O)N(C)Cc1ccccc1 [compound 1553] | A (100) | A (100) |
| CCN(CC)C(=O)c1c(I)cccc1C(=O)Nc1ccc(OC(F)F)cc1C [compound 1555] | A (100) | A (100) |
| CCCN(CC)C(=O)c1c(I)cccc1C(=O)Nc1ccc(OC(F)F)cc1C [compound 1575] | A (100) | A (100) |
| Cc1cc(C(F)(F)C(F)(F)F)ccc1NC(=O)c1cccc(Cl)c1C(=O)N(C)Cc1cccc(Cl)c1 [compound 1578] | A (100) | A (100) |
| CCCN(CC)C(=O)c1c(F)cccc1C(=O)Nc1ccc(OC(F)(F)F)cc1 [compound 1582] | A (100) | A (100) |
| CCCN(CC)C(=O)c1c(F)cccc1C(=O)Nc1ccc(OC(F)F)cc1 [compound 1583] | A (100) | A (100) |
| CCCN(CC)C(=O)c1c(F)cccc1C(=O)Nc1ccc(C(F)(F)C(F)(F)F)cc1Cl [compound 1584] | A (100) | A (100) |
| C#CC(C)(C)NC(=O)c1c(Cl)cccc1C(=O)Nc1ccc(OC(F)F)cc1C [compound 1588] | A (100) | A (100) |
| C=CC(C)(C)NC(=O)c1cccc(Cl)c1C(=O)Nc1ccc(C(F)(F)C(F)(F)F)cc1C [compound 1589] | A (100) | A (100) |
| CC(C)NC(=O)c1c(I)cccc1C(=O)Nc1ccc2c(c1)OC(F)(F)C2(F)F [compound 1620] | A (100) | A (100) |
| CC(C)NC(=O)c1c(I)cccc1C(=O)Nc1ccc2c(c1Cl)OC(F)(F)C(F)(F)O2 [compound 1626] | A (100) | A (100) |
| CC(C)NC(=O)c1ccccc1C(=O)Nc1ccc(Cl)cc1F [compound 1632] | A (100) | A (100) |
| Cc1cc2oc(C(F)(F)F)nc2cc1NC(=O)c1cccc(I)c1C(=O)NC(C)C [compound 1641] | A (100) | A (100) |
| CC(C)NC(=O)c1c(Cl)cccc1C(=O)Nc1cc2c(cc1Cl)OC(F)(F)C(F)(F)O2 [compound 1643] | A (100) | A (100) |
| Cc1nc(-c2cccc(NC(=O)c3cccc(I)c3C(=O)NC(C)C)c2)co1 [compound 1659] | A (100) | A (100) |
| CC(C)NC(=O)c1c(I)cccc1C(=O)Nc1ccc(C(F)(C(F)(F)F)C(F)(F)F)c2c1CCCC2 [compound 1726] | A (100) | A (100) |
